Data taken from article PMC11920646 (Frontiers in Pharmacology, 2025).

How the values were obtained:
[1] = system: IFN-γ release in human whole blood; set-up: method as in Hu et al., 2011; settings: at concentrations each of 100–1000 nM ref Hu et al., 2011; cited from earlier work
human MR [2] = biological target: T1, human MR (Homo sapiens, UniProt P08235); assay: Human MR radioligand binding (3H-aldosterone, recombinant MR from Sf9 cells); settings: 3H-aldosterone 0.4 nM, 20 h, 4°C
T1 construct: host or cells: insect Sf9 cells
T1 sequence (P08235 1-984): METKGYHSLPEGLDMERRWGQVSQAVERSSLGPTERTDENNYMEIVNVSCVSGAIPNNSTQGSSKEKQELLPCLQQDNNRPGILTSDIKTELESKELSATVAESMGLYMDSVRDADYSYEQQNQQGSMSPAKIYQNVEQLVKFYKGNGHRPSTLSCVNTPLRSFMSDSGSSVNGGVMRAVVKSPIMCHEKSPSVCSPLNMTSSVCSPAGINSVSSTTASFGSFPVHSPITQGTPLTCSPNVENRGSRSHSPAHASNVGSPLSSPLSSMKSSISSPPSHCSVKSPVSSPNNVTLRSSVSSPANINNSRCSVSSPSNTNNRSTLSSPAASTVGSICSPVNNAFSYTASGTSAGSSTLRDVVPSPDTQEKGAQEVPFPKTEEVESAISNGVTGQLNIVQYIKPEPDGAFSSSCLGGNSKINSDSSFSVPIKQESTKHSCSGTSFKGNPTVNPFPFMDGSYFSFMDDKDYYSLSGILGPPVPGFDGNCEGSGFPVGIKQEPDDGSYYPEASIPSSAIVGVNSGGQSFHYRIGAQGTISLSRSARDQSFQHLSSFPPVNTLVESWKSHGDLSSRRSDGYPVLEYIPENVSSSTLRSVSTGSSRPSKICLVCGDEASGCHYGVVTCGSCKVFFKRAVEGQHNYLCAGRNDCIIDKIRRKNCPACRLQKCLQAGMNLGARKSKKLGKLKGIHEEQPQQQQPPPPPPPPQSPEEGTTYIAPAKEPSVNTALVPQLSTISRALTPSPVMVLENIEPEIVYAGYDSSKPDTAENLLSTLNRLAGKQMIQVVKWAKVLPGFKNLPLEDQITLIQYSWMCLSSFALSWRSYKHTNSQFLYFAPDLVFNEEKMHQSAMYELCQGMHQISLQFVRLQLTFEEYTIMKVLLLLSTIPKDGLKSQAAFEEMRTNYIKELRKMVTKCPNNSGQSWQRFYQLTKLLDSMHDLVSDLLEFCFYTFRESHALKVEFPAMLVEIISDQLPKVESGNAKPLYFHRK
Experimental: Scintillation counting of bound radioligand was conducted after 6 and 20 h of incubation (at 4°C), respectively. […] Scintillation counting of bound radioligand was conducted after 20 h of incubation at 4°C.
The same statistical methods were used for the MR binding assays, but using MathIQ™ software (ID Business Solutions Ltd., Woking, United Kingdom).
Percent inhibition of control specific binding was calculated as follows: […]
The half-maximal inhibitory concentration (IC50; i.e., the concentration causing a half-maximal inhibition of control specific binding) and Hill coefficients (nH) were determined by non-linear regression analysis of the competition curves generated with mean replicate values using the following Hill equation curve fitting: Y=D+ A-D1+ C/C50nH , where Y = specific binding, A = left asymptote of the curve, D = right asymptote of the curve, C = compound concentration, C50 = IC50, and nH = slope factor.
The inhibition constants (Ki) were calculated using the Cheng Prusoff equation:
where L = concentration of radioligand employed in the assay, and KD = affinity of the radioligand for the receptor (a Scatchard plot was used to determine the KD) (Cheng and Prusoff, 1973).

human MR [3] = biological target: T2, human MR (Homo sapiens, UniProt P08235); assay: MR reporter gene (transactivation) assay, CHO-Gal4/MR; type: cell-based
T2 construct: host or cells: CHO (DSMZ ACC-110), CHO-Gal4/MR
T2 sequence (P08235 726-964 limits assumed): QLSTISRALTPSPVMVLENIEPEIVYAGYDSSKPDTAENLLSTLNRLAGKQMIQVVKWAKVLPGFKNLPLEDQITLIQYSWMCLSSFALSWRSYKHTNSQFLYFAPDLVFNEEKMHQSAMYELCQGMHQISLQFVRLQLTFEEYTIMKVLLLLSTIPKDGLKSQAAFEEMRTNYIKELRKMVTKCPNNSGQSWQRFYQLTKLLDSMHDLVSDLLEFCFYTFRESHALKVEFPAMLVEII
From the text: To create the CHO-Gal4/GR, CHO-Gal4/PR, and CHO-Gal4/MR reporter cell lines, first CHO cells were stably transfected with a GAL4-UAS-luciferase reporter construct. Then, the LBD of the GR, PR, or MR (GR Gene ID: 2908, PR Gene ID: 5241, MR Gene ID: 4306, respectively) was cloned into pIRES2-EGFP-GAL4 containing the DBD of GAL4 from pFA-AT2, and then co-transfected into the luciferase-reporter construct-containing CHO cells. These reporter cell lines express the respective nuclear hormone receptor LBD-DBD fusion proteins that control luciferase expression of a GAL4-upstream activation sequence (UAS)-luciferase reporter construct, allowing for detection of ligand- or compound-induced transactivation at the GR, PR, or MR by measuring luciferase activity.
Cryo-preserved CHO-Gal4/GR, CHO-Gal4/PR, and CHO-Gal4/MR cells were plated in medium at 7,500 cells/well in 384-well assay plates (25 μL/well), and incubated for 24 h. […] Following a 4-h incubation, cells were lysed and luminescence measured using the EMCCD camera FLIPR®Tetra (Molecular Devices, Silicon Valley, CA, United States).
Transactivation (i.e., gene activation) was expressed as a percentage of the reference agonist activity (Supplementary Material), using Genedata Screener® v15.0.5 software (Basel, Switzerland).
Transactivation was calculated according to this equation: […]

[4] = humans ref Ferry et al., 1988; cited from earlier work

C[C@]12C=CC(=O)C=C1CC[C@@H]1[C@@H]2[C@@H](O)C[C@@]2(C)[C@H]1CC[C@]2(O)C(=O)CO [Prednisolone]
inhibition of IFN-γ release in human whole blood [1]: 85–100%
IC50 (human MR [2]; read-out: Mineralocorticoid receptor IC50): 0.78 nM
Ki (human MR [2]; read-out: Mineralocorticoid receptor Ki): 0.26 nM
EC50 (human MR [3]; 4-h incubation): 11.8 ± 3.2 nM
MR transactivation, mean activation (human MR [3]; % of reference agonist fludrocortisone): 66.4 ± 4.7%
t½ [4]: ~2.5 h
